From patent publication US5972939A, “Cyclopentene derivatives useful as antagonists of the motilin receptor” (Ortho-McNeil Pharmaceutical, Inc., priority 1998, dated 1999)

molecular target: T1, motilin receptors located on the colon of mature rabbits (Oryctolagus cuniculus, UniProt G1T803); assay: competition with radiolabeled (125I) porcine motilin for the motilin receptors of rabbit colon; format: binding; conditions: @ 0.04 μM
T1 construct: The colon from mature New Zealand rabbits was removed, dissected free from the mucosa and serosa layers, and diced into small pieces; from tissue; host or cells: colon smooth muscle of mature New Zealand rabbits, crude membrane homogenate
Protocol: The compounds of the invention were tested for their ability to compete with radiolabeled motilin (porcine) for the motilin receptors located on the colon of mature rabbits. The colon from mature New Zealand rabbits was removed, dissected free from the mucosa and serosa layers, and diced into small pieces. […] The homogenate was centrifuged at 1000×g for 15 min. and the supernatant discarded. The pellet was washed twice before being suspended in homogenizing buffer. This crude homogenate is then passed first through a 19 gauge needle then a 23 gauge needle to further suspend the material and stored as -80° C. […] After 30 min, at 30° C., the material was cooled on ice and centrifuged at 13,000×g for 1 minute. The pellet was washed with 1 mL 0.9% saline and centrifuged at 13,000×g for 15 seconds. The pellet was washed again with cold saline and the supernatant was removed. The pellet was counted in the gamma counter to determine the percentage of […] motilin and thereby the percent inhibition of the test compound. IC50s were determined for some compounds by standard techniques.

T1 sequence (G1T803 1-400): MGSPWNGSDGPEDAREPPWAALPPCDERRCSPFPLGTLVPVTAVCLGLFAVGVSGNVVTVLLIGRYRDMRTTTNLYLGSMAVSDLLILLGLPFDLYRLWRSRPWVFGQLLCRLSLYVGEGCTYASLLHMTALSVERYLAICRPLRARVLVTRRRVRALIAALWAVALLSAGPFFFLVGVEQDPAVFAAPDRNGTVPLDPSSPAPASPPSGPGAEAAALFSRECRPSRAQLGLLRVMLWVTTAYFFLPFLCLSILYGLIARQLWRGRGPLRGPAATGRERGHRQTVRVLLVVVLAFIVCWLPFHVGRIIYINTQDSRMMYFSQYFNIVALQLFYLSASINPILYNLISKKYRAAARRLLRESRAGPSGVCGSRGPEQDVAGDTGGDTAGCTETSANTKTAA

| Structure (SMILES) | inhibition at 0.04 µM [%] |
| --- | --- |
| O=C(c1ccc(F)cc1)N(CC1=CC(Cc2ccc(F)cc2)(NC(=O)C(Cl)(Cl)Cl)CC1)c1cccc(OCCN2CCOCC2)c1 (centres unmarked) [Compound 125] | 43 |
| O=C(c1cccc(F)c1)N(CC1=CC(Cc2ccc(F)cc2)(NC(=O)C(Cl)(Cl)Cl)CC1)c1cccc(OCCN2CCOCC2)c1 (centres unmarked) [Compound 126] | 44 |

same assay, conditions: @ 0.1 μM

| Structure (SMILES) | inhibition at 0.1 µM [%] |
| --- | --- |
| O=C(c1ccc(F)cc1)N(CC1=CC(NC(=O)C(Cl)(Cl)Cl)(c2ccccc2)CC1)c1cccc(OCCN2CCOCC2)c1 (centres unmarked) [Compound 128] | 43 |
| O=C(c1ccc(I)cc1)N(CC1=CC(Cc2ccccc2)(NC(=O)C(Cl)(Cl)Cl)CC1)c1cccc(OCCN2CCOCC2)c1 (centres unmarked) [Compound 105] | 59 |
| O=C(Nc1ccccc1)N(CC1=CC(NC(=O)C(Cl)(Cl)Cl)(c2ccccc2)CC1)c1cccc(OCCN2CCOCC2)c1 (centres unmarked) [Compound 127] | 33 |
| O=C(c1cccc2ccccc12)N(CC1=CC(Cc2ccccc2)(NC(=O)C(Cl)(Cl)Cl)CC1)c1cccc(OCCN2CCOCC2)c1 (centres unmarked) [Compound 124] | 40 |
| O=C(c1ccc(Br)cc1)N(CC1=CC(Cc2cccc(Cl)c2)(NC(=O)C(Cl)(Cl)Cl)CC1)c1cccc(OCCN2CCOCC2)c1 (centres unmarked) [Compound 129] | 70 |
| O=C(c1cc(F)cc(F)c1)N(CC1=CC(Cc2ccccc2)(NC(=O)C(Cl)(Cl)Cl)CC1)c1cccc(OCCN2CCOCC2)c1 (centres unmarked) [Compound 106] | 78 |
| O=C(c1ccc(F)c(F)c1)N(CC1=CC(Cc2cccc(Cl)c2)(NC(=O)C(Cl)(Cl)Cl)CC1)c1cccc(OCCN2CCOCC2)c1 (centres unmarked) [Compound 130] | 78 |
| O=C(NC1(Cc2ccccc2)C=C(CN(C(=S)Nc2ccccc2)c2cccc(OCCN3CCOCC3)c2)CC1)C(Cl)(Cl)Cl (centres unmarked) [Compound 11] | 45 |

same assay, conditions: @ 1.0 μM

| Structure (SMILES) | inhibition at 1 µM [%] |
| --- | --- |
| CC(C)C1(NC(=O)C(Cl)(Cl)Cl)C=C(CN(C(=O)Nc2ccccc2)c2cccc(OCCN3CCOCC3)c2)CC1 (centres unmarked) [Compound 123] | 51 |
| CC(C)(C)c1ccc(C(=O)N(CC2=CC(Cc3ccccc3)(NC(=O)C(Cl)(Cl)Cl)CC2)c2cccc(OCCN3CCOCC3)c2)cc1 (centres unmarked) [Compound 110] | 19 |

same assay, conditions: @ 2.0 μM

| Structure (SMILES) | inhibition at 2 µM [%] |
| --- | --- |
| CN(C)CCSc1ccc(N(CC2=CC(Cc3ccccc3)(NC(=O)C(Cl)(Cl)Cl)CC2)C(=O)c2ccccc2)cc1 (centres unmarked) [Compound 86] | 49 |

same assay, conditions: @ 5.0 μM

| Structure (SMILES) | inhibition at 5 µM [%] |
| --- | --- |
| COc1ccc(NC(=O)N(CC2=CC(Cc3ccccc3)(NC(=O)C(Cl)(Cl)Cl)CC2)c2cccc(OCCN3CCOCC3)c2)cc1 (centres unmarked) [Compound 89] | 26 |

same assay, conditions: @ 10 μM

| Structure (SMILES) | inhibition at 10 µM [%] |
| --- | --- |
| O=C(c1ccccc1)N(CCc1cccc(OCCN2CCOCC2)c1)CC1=CC(Cc2ccccc2)(NC(=O)C(Cl)(Cl)Cl)CC1 (centres unmarked) [Compound 41] | 82 |
| O=C(NC1(Cc2ccccc2)C=C(CNc2cccc(OCCN3CCOCC3)c2)CC1)C(F)(F)F (centres unmarked) [Compound 131] | 25 |
| CCN(CC)CCN(CC1=CC(Cc2ccccc2)(NC(=O)C(Cl)(Cl)Cl)CC1)c1ccccc1OCCN1CCOCC1 (centres unmarked) [Compound 70] | 80 |
| CCN(CC)CCN(CCc1cccc(OCCN2CCOCC2)c1)CC1=CC(Cc2ccccc2)(NC(=O)C(Cl)(Cl)Cl)CC1 (centres unmarked) [Compound 92] | 95 |
| COc1ccc(N(CCN2CCOCC2)CC2=CC(Cc3ccccc3)(NC(=O)C(Cl)(Cl)Cl)CC2)cc1OCCN1CCOCC1 (centres unmarked) [Compound 40] | 27 |
| CCOC(=O)COc1cccc(N(CC2=CC(Cc3ccccc3)(NC(=O)C(Cl)(Cl)Cl)CC2)C(=O)c2ccccc2)c1 (centres unmarked) [Compound 46] | 51 |

same assay, conditions: rabbit colon, 125I motilin; read-out: IC50

| Structure (SMILES) | IC50 [nM] |
| --- | --- |
| O=C(c1ccc(Cl)c(Cl)c1)N(CC1=CC(Cc2ccccc2)(NC(=O)C(Cl)(Cl)Cl)CC1)c1cccc(OCCN2CCOCC2)c1 (centres unmarked) [Compound 97] | 260 |
| O=C(c1ccc(F)cc1)N(CC1=CC(Cc2cccc(Cl)c2)(NC(=O)C(Cl)(Cl)Cl)CC1)c1cccc(OCCN2CCOCC2)c1 (centres unmarked) [Compound 121] | 30 |
| N#Cc1ccc(C(=O)N(CC2=CC(Cc3ccccc3)(NC(=O)C(Cl)(Cl)Cl)CC2)c2cccc(OCCN3CCOCC3)c2)cc1 (centres unmarked) [Compound 109] | 98 |
